The text below walks through data of patent US20260306460A1, “COMPOSITION FOR REMOVING AND INHIBITING SENESCENT CELLS, AND USES THEREOF” (LIFECEUTIX CO., LTD., priority 2023, published 2026).

The test system of data set [1] is Splnocyte. Particulars: cited from earlier work.
Data set [2] concerns senescent A549 cells. In words: Viability of senescent A549 cancer cells (CellTiter-Glo), Example 12. The data set is classed as cell-based, human. Particulars: Homo sapiens, A549, 0 μM = 100, read-out: Survival.
Procedure: (§2) Cells were treated with doxorubicin or control (DMSO) and cultured.
Cancer cells in which aging was induced by treatment with doxorubicin were treated with the test compound at designated concentrations and measured using the CellTiter-Glo Luminescent Cell Viability Assay (Promega).
The subject of data set [3] is senescent foreskin cells. The experiment in a line: Survival of senescent human cells treated with supernatant (secreted fluid) from death-induced cells, Example 13. The data set is classed as cell-based. Particulars: senescent treated cells, 3 days; for viability at 30 µM: Homo sapiens, 72 h.
The test system of data set [4] is HMGN1 secreted from senescent A549 cells. The experiment in a line: HMGN1 secretion (ELISA) from senescent A549 cancer cells, Example 12.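 Also: A549 cells made senescent by doxorubicin exposure, with DMSO-treated cells serving as the non-senescent control.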 The data set is classed as cell-based, human. Particulars: senescent untreated = 100%; 30 μM; 90 μM for LX-305, 905, 1302, 1601, 1603, 2003, 2702, 2901, 3106; 270 μM for LX-1103, 2005, 2007.
Procedure: as §2
For data set [5], the system named is senescent human cells. The experiment in a line: Viability of doxorubicin-induced senescent human cells (CellTiter-Glo), Example 11. The data set is classed as cell-based.
Procedure: Cells in which senescence was induced by treatment with doxorubicin were treated with the test compound at designated concentrations and measured using the CellTiter-Glo Luminescent Cell Viability Assay (Promega).
Data set [6] deals with obesity-induced aged C57BL6J mice. The experiment in a line: Anxiety, depression, lethargy (open field test) in obesity-aged mice, Example 23-4, Table 44. The data set is classed as in vivo, mouse. Particulars: obesity-aged mice. A digest of the protocol: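 Male C57BL6J mice were made obese on a high-fat diet from 15 weeks of age. Compounds were given daily for 21 days: LX-3002 10 mg/kg orally, LX-5701 360 mg/kg orally, LX-6807 1 mg/kg intraperitoneally, with vehicle-treated controls. Open-field activity was then expressed relative to obese untreated mice set at 100%.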

Data set [7] has as its system naturally aged C57BL6J mice. The experiment in a line: Geriatric depression and anxiety in aged mice, Example 21-8. The data set is classed as in vivo, mouse. Particulars: aged mice. The source says:
The amount of senescent-associated secretory factor (SASP) in serum and tissues collected from mice of Examples 21-5 and 21-6 was reduced by treatment with LX-5701, LX-2101, or LX-2102. It was confirmed that removing senescent cells, which increase with aging in mice, and effectively reducing the amount of senescent-associated secretory factor (SASP) can improve symptoms of geriatric depression and anxiety.

Data set [8] concerns non-senescent proliferating human cells. The experiment in a line: Effect on non-senescent (proliferating) human cells. Particulars: normally proliferating foreskin cells; 30 μM, 3 days. The data set is classed as cell-based. The source says:
Based on the results of Example 10 of WO2023-085787 A1, compounds that induce the death of senescent cells through a mechanism similar to LX-112, unlike existing senescent cell removers such as ABT-263, were screened based on HMGN1. […] The following test compounds were synthesized by and purchased from Medchemexpress, Selleckchem, Cayman, Medkoo, Sigma, Molport, Enzo, TCI, Santa Cruz, REONSIMI, Abcam, Alfa Aesar, APExBIO, BOCSCI, Merck, Thermo Fisher Scientific, R&D Systems, ChemFaces, Aobious, etc. […] In cells in which senescence was not induced by treatment with the control group (DMSO), the amount of HMGN1 above the effective value (sensitivity: 35 pg/ml), analysis limit, was not detected in both untreated and treated conditions with the test compound. On the other hand, in cells where senescence was induced by treatment with doxorubicin, the amount of HMGN1 was measured at 80 to 90 pg/ml. […]
(§1) After 3 days, cell viability was measured using CellTiter-Glo Luminescent Cell Viability Assay (Promega) or light microscopy.
Using the same method as Example 11, compounds that induce senescent cell death through a mechanism similar to that of LX-112 (ethaselen (1,2-[bis(1,2-benzisoselenazolone-3 (2H)-ketone)]ethane)) were screened based on HMGN1 and others. […] On the other hand, in cells senescent with doxorubicin, an amount of HMGN1 of […] was measured. […]

Data set [9] has as its system proliferating foreskin cells. In words: Survival of proliferating human cells treated with supernatant (secreted fluid) from death-induced cells, Example 13. The data set is classed as cell-based. Particulars: 3 days; for viability at 30 µM: Homo sapiens, 72 h. How it is done: as §1
After treating cells with the test compound at a high concentration that induces the death of most cells in both non-senescence-induced and senescence-induced cells, the cells were washed three times with PBS to remove the test compound, and replaced with fresh medium and cultured for an additional 3 hours at the time when the compound has entered into the cell but has not yet induced cell death (approximately 1 to 3 hours after compound treatment). During this additional culture, by checking with an optical microscope, etc., the medium supernatants containing secreted fluid from normally proliferating and senescent cells in which cell death was induced were obtained. The obtained medium supernatant was replaced with the medium of normally proliferating and senescent cells, respectively, and cell survival rate was measured after 3 days.

The mark [10] stands for this setting: supernatant from death-induced proliferating cells.
Setting [11] is: supernatant from death-induced senescent cells.

Regarding `CC(O)[C@@H]1NC(=O)COCCOCCNC(=O)[C@H](C(C)O)NC(=O)N[C@@H](C(C)O)C(=O)NNC1=O` (stereo partly drawn) [Cyclic compound 1], the Splnocyte proliferation recovery entry in [1] is listed as “Splnocyte proliferation recovery 91%”.

On to `CC(C)c1onc(C(=O)N2CCN(C(c3ccccc3)c3ccccc3)CC2)c1[N+](=O)[O-]` [LX-401], for which the viability at 1.1 µM in data set [2] (1.1 μM) was 89.7%; in data set [5] (Homo sapiens, 1.1 μM, 0 μM = 100, read-out: Survival), 20.4%. Besides, the viability at […] in data set [2] (3.3 μM) amounted to 68.6%; in data set [5] (Homo sapiens, 3.3 μM, 0 μM = 100, read-out: Survival), 12.4%. Besides, the viability at 10 µM came to 42.1% in [2] (10 μM) and 10.6% in data set [5] (Homo sapiens, 10 μM, 0 μM = 100, read-out: Survival). In addition, the viability at 30 µM in data set [2] (30 μM) came out at 16.8%; in data set [3] (setting [10]), 48.2%; in [3] (setting [11]), 42.2%; in data set [5] (Homo sapiens, 30 μM, 0 μM = 100, read-out: Survival), 7.8%; in [9] (setting [10]), 88.1%; in data set [9] (setting [11]), 95.1%. Besides, the Survival is recorded as 101.1 (±5.5) % in data set [3] (supernatant from No Cells) and 97.9 (±7.2) % in [9] (supernatant from No Cells). The HMGN1 in [4] was 277%. The “induced death of cells” value in data set [5] (senescent foreskin cells, 30 μM, 3 days) is “induced the death of most cells”; in [8] it was “induced the death of most cells”. Moreover, in [6], the geriatric depression entry was “similarly improving geriatric depression”. The “amount of SASP, p16, SA-β-gal, lipofuscin” value in data set [7] is on record as “reduced”. In addition, the “symptoms of geriatric depression and anxiety” value in data set [7] was “improved”.
